In US20200397749A1, “COMPOSITIONS AND METHODS FOR TREATING ACUTE CANNABINOID OVERDOSE WITH A CANNABINOID RECEPTOR ANTAGONIST” (Opiant Pharmaceuticals, Inc., priority 2019, published 2020):

Columns and labels:
[1] = Solubility of drinabant in excipients; type: physicochemical
Protocol: Drinabant may be added to a fixed volume of aqueous solution with and without various amounts of water soluble carriers such as Solutol HS 15 in screw capped bottles. […] Filtered solutions are then analyzed for drinabant concentration using an appropriate method such as UV/visible spectrophotometry at an appropriate wavelength (nm) or by HPLC.
Two different categories of excipients, described in the literature as injectable intravenously, were tested for the solubility of drinabant:
(§1) The chemical composition of the selected excipients, as well the solubility of drinabant, are renorted in the table below.

[2] = Stability at RT of drinabant in the saturated solution; type: physicochemical
From the text: as §1

[3] = cited from earlier work

**Q.** Which results are given for `CS(=O)(=O)N(c1cc(F)cc(F)c1)C1CN(C(c2ccc(Cl)cc2)c2ccc(Cl)cc2)C1` [drinabant]?
**A.** drinabant solubility ([1]; in Cremophor EL (POE hydrogenated castor oil)): 49.4 mg/g; drinabant solubility ([1]; in Glycerol): <<0.0001 mg/g; drinabant solubility ([1]; in Glycofurol): 139.4 mg/g; drinabant solubility ([1]; in PEG 400): 50 mg/g; drinabant solubility ([1]; in PS80 VG (POE monooleate)): 48.8 mg/g; drinabant solubility ([1]; in Propylene glycol): 7 mg/g; drinabant solubility ([1]; in Solutol HS15 (PEG hydroxystearate), at 40° C.): 64.6 mg/g; Stability at RT of drinabant in the saturated solution ([2]; in Cremophor EL): Stable; Stability at RT of drinabant in the saturated solution ([2]; in PS80 VG): Stable; Stability at RT of drinabant in the saturated solution ([2]; in Solutol HS15): Stable; Tmax ([3]; oral drinabant): > 3 h; safety and tolerability ([3]; oral, up to 240 mg up to 3 weeks (Phase I), 60 mg up to 24 weeks (Phase II)): safe and well tolerated
